Data reported in patent publication US20220039395A1, “INSECT CONTROL AGENTS” (priority 2018, published 2022).
Entries after “also recorded” stand apart in the source; their conditions may differ. Square brackets hold non-standard residues; d marks the D form. Aib = CC(C)(N)C(=O)O

Key:
Myzus persicae [1] = test: Cold tolerance bioassay at the discriminating temperature after microinjection; assay type: in vivo; settings: M. persicae, 1 h at −9.7° C., survival assessed after 48 h, vs control
Experimental: Neuropeptides were administered to test aphids via microinjection to allow for rapid mass screening of neuropeptide analogue efficacy. For this, native neuropeptides were diluted in double distilled water (DDH2O) to a concentration of 1×10^−5 M. Neuropeptide analogues were diluted in DDH2O to the following concentrations: kinin analogues 1728 (2.5×10^−5 M), 2139 (3.5×10^−5 M), 2139-Ac (3.5×10^−5 M); CAP2b analogues 1895 (3.5×10^−5 M), 1896 (3.5×10^−5 M), 1902 (3.5×10^−5 M), 2089 (3.9×10^−5 M), 2123 (1.0×10^−5 M), 2125 (1.0×10^−5 M), 2129 (2.0×10^−5 M). […]
For this reason, and given its global pest status, only M. persicae was taken forward in cold stress assays. […] Following exposure, aphids were allowed to recover at the culture temperature in microcages containing excised leaves of the host plant and survival was assessed after 48 h. […]
Survival data were analysed using Probit analysis in MINITAB, version 17 (Minitab Inc., State College, Pa.) and the LT30 (the lethal temperature resulting in 30% mortality of a test population) was elucidated.
Pre-reproductive anholocyclic adult aphids of M. persicae were treated with neuropeptide analogues using the microinjection method detailed above. […] Following exposure, adults were allowed to recover at the culture temperature in microcages containing excised leaves of the host plant and survival was assessed after 48 h. […]

Myzus persicae [2] = test: Desiccation/starvation tolerance assay after peptide microinjection; assay type: in vivo; settings: Myzus persicae, microinjection; for Documented effect on desiccation/starvation mortality: final concentration ×10^−5 M, relative to vehicle control; for LTime50 (h), test / Median ± IQR survival (h), test: ×10^−5 M, desiccation and starvation stress, test group
Experimental: (§1) Neuropeptides were administered to test aphids via microinjection to allow for rapid mass screening of neuropeptide analogue efficacy. For this, native neuropeptides were diluted in double distilled water (DDH2O) to a concentration of 1×10^−5 M. Neuropeptide analogues were diluted in DDH2O to the following concentrations: kinin analogues 1728 (2.5×10^−5 M), 2139 (3.5×10^−5 M), 2139-Ac (3.5×10^−5 M); CAP2b analogues 1895 (3.5×10^−5 M), 1896 (3.5×10^−5 M), 1902 (3.5×10^−5 M), 2089 (3.9×10^−5 M), 2123 (1.0×10^−5 M), 2125 (1.0×10^−5 M), 2129 (2.0×10^−5 M). Once at the desired concentration, neuropeptide solutions were administered to test aphids at an injection volume of 9 nl based on total haemolymph volume, to produce an approximate 1:20 dilution of injection volume to haemolymph. Injections were performed using a pulled glass needle and a Nanoject II Auto-Nanoliter Injector (Drummond Scientific Company, Broomall, Pa.). A vehicle control was set up for each treatment/day of experiments to account for variation in needle pulling. For this, control aphids were injected with 9 nl of DDH2O and subsequently exposed to the same experiments as aphids receiving the neuropeptide treatment. Neuropeptide treated and vehicle control aphids were subsequently used in the stress bioassays detailed below.
(§2) Anholocyclic adults of mixed age of either M. persicae or M. rosae were selected from the stock cultures and treated with a native neuropeptide or neuropeptide analogue via microinjection using the method detailed above. Treated and vehicle control aphids were allowed to recover on excised leaves of the host plant for 1 h before being placed in an empty ventilated microcage (L=4 cm, 0=9.5 cm) at densities of 10 per cage. In total, 30-40 aphids were treated for each neuropeptide treatment group and a further 30-40 for the associated vehicle control group. From the point of placement in the microcage (taken as 0 h), aphid survival was checked every hour during daylight hours and approximately every 4 h during night-time hours until the final aphid died. Survival data were subsequently analysed using a Log-rank (Mantel-Cox) text in GraphPad Prism version 7.0. LTime50 (the time taken to kill 50% of the test population) values were calculated via Probit Analysis in Minitab 17 (Minitab Inc., State College, Pa.).

Macrosiphum rosae = test: as above; assay type: in vivo; settings: Macrosiphum rosae, microinjection; for Documented effect on desiccation/starvation mortality: final concentration ×10^−5 M, relative to vehicle control; for LTime50 (h), test / Median IQR survival (h), test: ×10^−5 M, desiccation and starvation stress, test group
Experimental: as §1, §2

M. persicae = test: Topical application under desiccation/starvation conditions; assay type: in vivo, Myzus persicae; settings: data not shown
Experimental: For peptides 2315, 2320 and 2125, peptides were diluted individually in an Armid FMPC formulation (AkzoNobel Surface Chemistry, Stenungsund, Sweden) to concentration of 1×10^−5 M. Using a Nanoject II Auto-Nanoliter micro-injector, 9 nl of the peptide solution was applied topically to the abdomen of a pre-reproductive adult aphid, coating the cuticle in the solution. Aphids were returned to the host plant and allowed to recover for 24 h before use in experiments. Control aphids were topically applied with 9 nl of the Armid FMPC formulation and, once again, allowed to recover for 24 h on the host plant before use in experiments.
as §2, with “In total, 30-40 aphids were treated for each neuropeptide treatment group and a further 30-40 for the associated vehicle control group. From the point of placement in the microcage (taken as 0 h), aphid survival was checked every hour during daylight hours and approximately every 4 h during night-time hours until the final aphid died.” left out

Ac-FF[Aib]WG-NH2 [2139-AC, reference compound]
Effect on survival/mortality under cold stress (Myzus persicae [1]): acting to increase survival relative to the control | Documented effect on desiccation/starvation mortality (Myzus persicae [2]): No effect | LTime50 (h), test (Myzus persicae [2]): 19.4 | 16.7 h | Median ± IQR survival (h), test (Myzus persicae [2]): 22.5 ± 19.8 | 20.0 ± 14.0 h | Documented effect on desiccation/starvation mortality (Macrosiphum rosae): No effect | LTime50 (h), test (Macrosiphum rosae): 44.0 | 40.1 h | Median IQR survival (h), test (Macrosiphum rosae): 39.0 ± 37.0 | 35.0 ± 32.0 h

2Abf-Suc-FT[Oic]RV-NH2 [compound 2125]
effect on mortality (M. persicae): significantly increased mortality | Documented effect on desiccation/starvation mortality (Myzus persicae [2]): non-significant survival curves; also recorded: No effect | LTime50 (h), test (Myzus persicae [2]): 10.8 | 13.0 h | Median ± IQR survival (h), test (Myzus persicae [2]): 11.0 ± 12.0 | 11.0 ± 12.0 h | Documented effect on desiccation/starvation mortality (Macrosiphum rosae): non-significant survival curves; also recorded: No effect | LTime50 (h), test (Macrosiphum rosae): 21.6 | 20.1 h | Median IQR survival (h), test (Macrosiphum rosae): 24.0 ± 9.25 | 20.5 ± 18.0 h
